Km data for 1 compound are collected here from article PMC6379152 (Cellular microbiology, 2018).

For this experiment, the system named is rHSGGT1 (HSGGT1). In words: pNA release at […] nm, Michaelis-Menten fit. Type of experiment: biochemical, Helicobacter saguini. The note with it: 20 mM glycylglycine as acceptor; Tris-HCl pH 8; 37 C; mean of three batches.

`N[C@@H](CCC(=O)Nc1ccc([N+](=O)[O-])cc1)C(=O)O` [GpNA, L-y-glutamyl-p nitroanilide]: the Km (as a rule, the substrate concentration at which the rate is half of its maximum) stood at 12.3 ± 2.35 µM.
